System: B16F10-OVA melanoma
Test: Therapeutic efficacy in murine model of B16F10-OVA melanoma
Type: in vivo, C57BL/6 mice
Protocol: FIGS. 9A-9B. FIGS. 9A-9B show therapeutic effect of OVA pNPs. In FIG. 9A, a vaccine doses and regimen for a murine model is shown. […] C57BL/6 mice are inoculated subcutaneously with 1×10^5 B 16F10-OVA cells on day 0. On days 7 and 14, mice are treated with indicated formulations (OVA pNP, soluble OVA, PBS) containing 10 μg/dose OVA and 15 μg/dose CpG (100 μL dose). Data represent mean±SEM (n=10). Groups are compared using Kaplan-Meier estimator analysis. P<0.05 is considered statistically different (*P<0.05). P>0.05 is considered not significant.
Therapeutic efficacy of pNPs in a model of melanoma. Encouraged by the fact that OVA pNPs with 10% PEG/OVA ratio result in increased OT-I CD8+ cell proliferation in vitro, improved uptake by APCs (both in vitro and in vivo), and enhanced humoral immune response in vivo, a murine model of B16F10-OVA melanoma was employed to evaluate the therapeutic efficacy of pNPs with a PEG/OVA ratio of 10% compared to solute OVA. […] Following the regimen shown in FIG. 9A, C57BL/6 mice (10 mice/treatment group) were inoculated with 1×10^5 B16F10-OVA cells in the SC flank on day 0. […] A second treatment was given on day 14. Mice were euthanized after their tumors reached 15 mm in any dimension. […] More than 50% of mice treated with solute OVA were euthanized due to large tumor burden on day 20, and 100% of the mice were euthanized on day 21.

[1] = treated days 7 and 14, 10 μg OVA + 15 μg CpG, n=10

Substance: Ovalbumin [soluble OVA, soluble ovalbumin antigen used as control]
- animal survival (solute OVA vs no treatment control, pNPs until endpoint day 24): slightly better survival
- mice euthanized due to large tumor burden on day 20 [1]: More than 50%
- mice euthanized on day 21 [1]: 100%
